Experimental data reported in ChEMBL document CHEMBL4342421, “Current scenario of tetrazole hybrids for antibacterial activity” (Eur J Med Chem, 2019).
Converted amounts (≈) assume the structure as drawn.

Columns and labels:
Aspergillus flavus [1] = assay: Antifungal activity against Aspergillus flavus; type: functional
Aspergillus niger = assay: Antifungal activity against Aspergillus niger; type: functional
Fusarium oxysporum = assay: Antifungal activity against Fusarium oxysporum; type: functional
Staphylococcus aureus [2] = assay: Antibacterial activity against methicillin resistant Staphylococcus aureus N315 after 24 hrs by two-fold broth serial dilution method; type: functional; conditions: N315, 24 h
Bacillus subtilis [3] = assay: Antibacterial activity against Bacillus subtilis ATCC 21216 after 24 hrs by two-fold broth serial dilution method; type: functional; conditions: ATCC 21216, 24 h
Micrococcus luteus = assay: Antibacterial activity against Micrococcus luteus ATCC 4698 after 24 hrs by two-fold broth serial dilution method; type: functional; conditions: ATCC 4698, 24 h
Escherichia coli [4] = assay: Antimicrobial activity against Escherichia coli JM 109 after 24 hrs by two-fold broth serial dilution method; type: functional; conditions: JM 109, 24 h
Pseudomonas aeruginosa [5] = assay: Antimicrobial activity against Pseudomonas aeruginosa ATCC 27853 after 24 hrs by two-fold broth serial dilution method; type: functional; conditions: ATCC 27853, 24 h
Shigella dysenteriae = assay: Antimicrobial activity against Shigella dysenteriae after 24 hrs by two-fold broth serial dilution method; type: functional
Candida albicans = assay: Antifungal activity against Candida albicans ATCC 76615 after 24 hrs; type: functional; conditions: ATCC 76615, 24 h
Cyberlindnera jadinii = assay: Antifungal activity against Candida utilis after 24 hrs; type: functional; conditions: Williopsis jadinii
Aspergillus flavus [6] = assay: Antifungal activity against Aspergillus flavus after 24 hrs; type: functional
Saccharomyces cerevisiae = assay: Antifungal activity against Saccharomyces cerevisiae after 24 hrs; type: functional
Pichia norvegensis = assay: Antifungal activity against Candida mycoderma after 24 hrs; type: functional
Pseudomonas aeruginosa [7] = assay: Antimicrobial activity against Pseudomonas aeruginosa assessed as zone of inhibition at 5 mg/ml; type: functional; conditions: read-out: IZ
Staphylococcus aureus [8] = assay: Antimicrobial activity against Staphylococcus aureus assessed as zone of inhibition at 5 mg/ml; type: functional; conditions: read-out: IZ
Klebsiella pneumoniae = assay: Antimicrobial activity against Klebsiella pneumoniae assessed as zone of inhibition at 5 mg/ml; type: functional; conditions: read-out: IZ
Escherichia coli [9] = assay: Antimicrobial activity against Escherichia coli assessed as zone of inhibition at 5 mg/ml; type: functional; conditions: read-out: IZ
Bacillus subtilis [10] = assay: Antimicrobial activity against Bacillus subtilis; type: functional
Proteus vulgaris = assay: Antimicrobial activity against Proteus vulgaris; type: functional
Salmonella typhimurium = assay: Antimicrobial activity against Salmonella typhimurium; type: functional, Salmonella enterica subsp. enterica serovar Typhimurium; conditions: Salmonella enterica
Streptococcus pneumoniae = assay: Antimicrobial activity against Streptococcus pneumoniae; type: functional
Proteus mirabilis = assay: Antimicrobial activity against Proteus mirabilis; type: functional
Prescottella equi = assay: Antimicrobial activity against Rhodococcus equi; type: functional; conditions: Rhodococcus (subgen. Prescottella) equi
Bacillus thuringiensis = assay: Antimicrobial activity against Bacillus thuringiensis; type: functional

Clc1ccc(-n2cc(-c3nnn[nH]3)nn2)cc1
MIC (Aspergillus flavus [1]): 100 µg/mL (≈ 404 µM) | MIC (Aspergillus niger): 100 µg/mL (≈ 404 µM) | MIC (Fusarium oxysporum): 100 µg/mL (≈ 404 µM)

Cc1cc(=O)oc2cc(OCC(O)Cn3nnnc3C)cc(OCC(O)Cn3nnnc3C)c12 (stereo not drawn)
MIC (Staphylococcus aureus [2]): 32 to 512 µg/mL (≈ 67.7 to 1080 µM) | MIC (Bacillus subtilis [3]): 32 to 512 µg/mL (≈ 67.7 to 1080 µM) | MIC (Micrococcus luteus): 32 to 512 µg/mL (≈ 67.7 to 1080 µM) | MIC (Escherichia coli [4]): 32 to 512 µg/mL (≈ 67.7 to 1080 µM) | MIC (Pseudomonas aeruginosa [5]): 32 to 512 µg/mL (≈ 67.7 to 1080 µM) | MIC (Shigella dysenteriae): 32 to 512 µg/mL (≈ 67.7 to 1080 µM) | MIC (Candida albicans): 32 to 512 µg/mL (≈ 67.7 to 1080 µM) | MIC (Cyberlindnera jadinii): 32 to 512 µg/mL (≈ 67.7 to 1080 µM) | MIC (Aspergillus flavus [6]): 32 to 512 µg/mL (≈ 67.7 to 1080 µM) | MIC (Saccharomyces cerevisiae): 32 to 512 µg/mL (≈ 67.7 to 1080 µM) | MIC (Pichia norvegensis): 32 to 512 µg/mL (≈ 67.7 to 1080 µM)

CCn1cc(C(=O)O)c(=O)c2cc(F)c(N3CCN(C)CC3)cc21 [PEFLOXACIN]
zone of inhibition at 5000 µg/mL (Pseudomonas aeruginosa [7]): 28 to 36 mm | zone of inhibition at 5000 µg/mL (Staphylococcus aureus [8]): 28 to 36 mm | zone of inhibition at 5000 µg/mL (Klebsiella pneumoniae): 28 to 36 mm | zone of inhibition at 5000 µg/mL (Escherichia coli [9]): 28 to 36 mm

c1ccc(N2CCN(c3ncnc4c3Sc3nnnn3N4)CC2)cc1
MIC (Bacillus subtilis [10]): 51 to 410 µg/mL (≈ 144 to 1160 µM) | MIC (Proteus vulgaris): 51 to 410 µg/mL (≈ 144 to 1160 µM) | MIC (Salmonella typhimurium): 51 to 410 µg/mL (≈ 144 to 1160 µM) | MIC (Streptococcus pneumoniae): 51 to 410 µg/mL (≈ 144 to 1160 µM) | MIC (Proteus mirabilis): 51 to 410 µg/mL (≈ 144 to 1160 µM) | MIC (Prescottella equi): 51 to 410 µg/mL (≈ 144 to 1160 µM) | MIC (Bacillus thuringiensis): 51 to 410 µg/mL (≈ 144 to 1160 µM)

CO/N=C(\C(=O)N[C@@H]1C(=O)N2C(C(=O)O)=C(CSc3nc(=O)c(O)nn3C)CS[C@H]12)c1csc(N)n1 [CEFTRIAXONE]
MIC (Bacillus subtilis [10]): 0.063 to 8 µg/mL (≈ 0.114 to 14.4 µM) | MIC (Proteus vulgaris): 0.063 to 8 µg/mL (≈ 0.114 to 14.4 µM) | MIC (Salmonella typhimurium): 0.063 to 8 µg/mL (≈ 0.114 to 14.4 µM) | MIC (Streptococcus pneumoniae): 0.063 to 8 µg/mL (≈ 0.114 to 14.4 µM) | MIC (Proteus mirabilis): 0.063 to 8 µg/mL (≈ 0.114 to 14.4 µM) | MIC (Prescottella equi): 0.063 to 8 µg/mL (≈ 0.114 to 14.4 µM) | MIC (Bacillus thuringiensis): 0.063 to 8 µg/mL (≈ 0.114 to 14.4 µM)

Cc1cc(=O)oc2cc(OCC(O)Cn3nnnc3C)ccc12 (stereo not drawn)
MIC (Staphylococcus aureus [2]): 4 to 512 µg/mL (≈ 12.6 to 1620 µM) | MIC (Bacillus subtilis [3]): 4 to 512 µg/mL (≈ 12.6 to 1620 µM) | MIC (Micrococcus luteus): 4 to 512 µg/mL (≈ 12.6 to 1620 µM) | MIC (Escherichia coli [4]): 4 to 512 µg/mL (≈ 12.6 to 1620 µM) | MIC (Pseudomonas aeruginosa [5]): 4 to 512 µg/mL (≈ 12.6 to 1620 µM) | MIC (Shigella dysenteriae): 4 to 512 µg/mL (≈ 12.6 to 1620 µM) | MIC (Candida albicans): 4 to 512 µg/mL (≈ 12.6 to 1620 µM) | MIC (Cyberlindnera jadinii): 4 to 512 µg/mL (≈ 12.6 to 1620 µM) | MIC (Aspergillus flavus [6]): 4 to 512 µg/mL (≈ 12.6 to 1620 µM) | MIC (Saccharomyces cerevisiae): 4 to 512 µg/mL (≈ 12.6 to 1620 µM) | MIC (Pichia norvegensis): 4 to 512 µg/mL (≈ 12.6 to 1620 µM)
